One series deals with human Factor Xa (Homo sapiens (Human), UniProt P00742). Briefly: Assay C: human Factor Xa chromogenic substrate assay. The format is biochemical. To be noted: for IC50: human Factor Xa 0.86 nM, chromogenic substrate S2765; for Selectivity Assay C/Assay A: ratio IC50 Factor Xa / IC50 IDO1. The method, then:
Assay C. In Vitro Testing of Human Factor Xa Potency:
Measurement of active human Factor Xa using a specific chromogenic substrate which is labeled with a p-nitro-anilino group (pNA). The cleavage in between the binding of the peptide substrate and the pNA-group is followed by a color change, which can be detected at 405 nm. The amount of cleaved substrate is directly proportional to the amount of active Xa.
[…] (100 U) human Factor Xa (Enzyme Research Laboratories; HFXa1011) were solved in 0.444 ml H2O (Millipore), which accords to a stock solution of 19.28 μM or 225 U/ml. Further dilutions were made in the assay buffer (Tris 100 mM, NaCL 150 mM, adjusted to a pH of 7.8 with HCL, containing 0.1% BSA and 0.05% Tween20). 25 mg (1 vial) of the chromogenic substrate S2765 (Chromogenix; S2765) was solved in 3.5 ml H2O (Millipore) to achieve a stock solution of 10 mM.
Compounds were solved and diluted in DMSO where the final dilution in the assay is 1:10 resulting in a final concentration of 1% DMSO.
• the prefinal dilution step was 1:10 in the assay buffer containing 11% DMSO resulting in 10% DMSO • final dilution in the assay is 1:10 resulting in a final concentration of 1% DMSO
Compounds were tested at final concentrations of 10 μM to 0.003 nM or lower. 5 μl human factor Xa (final concentration 0.86 nM), 2 μl compound dilution or assay buffer (containing 10% DMSO) and 8 μl assay buffer were pipetted in triplicates into a 384-well plate and incubated in the Thermomix at 24° C. for 10 minutes.
After addition of 5 μl chromogenic substrate (final concentration 0.5 mM) the enzyme-substrate reaction started and the kinetic measurement with the SpectraMax Monochromator was started within 1-2 minutes. • Parameter of measurement: (Spectra ax, Monochromator) • Absorbance; 1.LM 405 nM • Kinetic: 16 min each 2nd minute (9 times) • Negative Control (NC) 5 μl human factor Xa+10 μl assay buffer+5 μl Substrate • Positive Control (PC): 5 μl human factor Xa+2 μl Nafamostat (commercially available, final concentration: 1 μM)+8 μl assay buffer+5 μl Substrate • Blank (optional): 15 μl assay buffer+5 μl Substrate
Calculation of IC50, KI and the % effect at the highest concentration (Ratio)
For the calculation the average of the Vmax-values in between 120 sec to 720 sec were taken.
A x/y-Plot was created: x=log (M, Compound); y=vmax (drfu/min)
The data were analyzed with the curve fitting model: log (inhibitor) vs. response—Variable slope (four parameters)
The results of this fit were Top, Bottom, Log (IC50, M), Hillslope and IC50 (M)

For a further series, the system named is human hepatocytes. The series is described as follows: Assay D: metabolic stability in human hepatocytes. It is filed as in vitro ADME. Conditions: for Hepatocyte stability Assay D: human hepatocytes, 1 μM, % of liver blood flow, mean +− standard deviation. As to the method: Assay D. Assessment of Metabolic Stability in Human Hepatocytes
The metabolic degradation of the test compound is assayed in a hepatocyte suspension. After recovery from cryopreservation, human hepatocytes are incubated in Dulbecco's modified eagle medium supplemented with 3.5 μg glucagon/500 mL, 2.5 mg insulin/500 mL and 3.75 mg/500 mL hydrocortisone) containing 5% or 50% human serum or in absence of serum.
Following a 30 min preincubation in a cell culture incubator (37° C., 10% CO2), 5 μl of test compound solution (80 μM; derived from a 2 mM DMSO stock solution by dilution 1:25 with medium) are added into 395 μl hepatocyte suspension, resulting in a final cell density of 1 Mio cells/mL, a final test compound concentration of 1 μM, and a final DMSO concentration of 0.05%.
The cells are incubated for six hours (incubator, orbital shaker) and samples (25 μl) are removed from the incubation after 0, 0.5, 1, 2, 4 and 6 hours. Samples are transferred into acetonitrile and pelleted by centrifugation (5 min). The supernatant is transferred to a new 96-deepwell plate, evaporated under nitrogen and resuspended prior to analysis of decline of parent compound by HPLC-MS/MS.
CLint is calculated as follows: CL_INTRINSIC=k/CD×1000/60 k: slope of the regression line for parent decline [h^−1], CD: cell density of vital cells [10e6 cells/mL],
The calculated in vitro hepatic intrinsic clearance is scaled up to the intrinsic in vivo hepatic Clearance and used to predict hepatic in vivo blood clearance (CL) by the use of a liver model (well stirred model): CL_INTRINSIC_INVIVO [ml/min/kg]=(CL_INTRINSIC [μL/min/10e6 cells]×hepatocellularity [10e6 cells/g liver]×liver factor [g/kg bodyweight])/1000 CL[ml/min/kg]=CL_INTRINSIC_INVIVO [ml/min/kg]×hepatic blood flow [ml/min/kg]/(CL_INTRINSIC_INVIVO[ml/min/kg]+hepatic blood flow [ml/min/kg])
Results are expressed as percentage of hepatic blood flow: QH[%]=CL[ml/min/kg]/hepatic blood flow [ml/min/kg])
Hepatocellularity, human: 120×10e6 cells/g liver
Liver factor, human: 25.7 g/kg bodyweight
Blood flow, human: 20.7 ml/(min×kg)

The next series addresses human androgen receptor (Homo sapiens (Human), UniProt P10275). Briefly: Assay B: human androgen receptor luciferase reporter assay (Indigo Biosciences). The format is cell-based. Conditions: for Selectivity Assay B/Assay A: ratio IC50 androgen receptor / IC50 IDO1. From the text: Assay B. In Vitro Testing of Androgen Receptor Potency:
The human androgen receptor (AR) assay was run using Product #IB03001 from Indigo Biosciences. The cell line provided in this kit carries a reporter gene, induced upon AR stimulation. This reporter gene is cDNA encoding for beetle luciferase, a 62 kD protein originating from the North American firefly (Photinus pyralis). This luciferase catalyzes the mono-oxidation of D-luciferin yielding oxyluciferin, adenosine monophosphate, pyrophosphate, CO2, and photon emission. The luminescence intensity of the reaction is quantified using a luminometer.
To run the assay, the cells are thawed by adding pre-warmed cell recovery medium to each tube, then placed in a 37° C. water bath. 30000 viable cells in 200 μl are plated (collagen coated plates) and incubated at 37° C., ≥85% humidity, 5% CO2 for 24 hours. Media is replaced with compound screening medium. Cells are then challenged with 125 pM (EC80) 6a-Fl Testosterone and compounds are applied in half logarithmic dilutions from 10 μM to 10 nM. Assay plates are then incubated at 37° C., ≥85% humidity, 5% CO2 for 22-24 hours. Media is replaced with luciferase detection reagent and allowed 5 minutes to equilibrate prior to luminescence quantification.
Data Analysis consisted of calculating percentage of control between 100% (Negative control:6a-Fl Testosterone) and 0 (positive control: no 6a-FL Testosterone). Fitting of normalized values was made 4-Parameter sigmoidal binding curve (Log[conc]) vs. signal.
(In general: Reporter assays use an easily measured gene product as a stand-in for the process of interest.)

Chain of human androgen receptor (P10275 whole entry): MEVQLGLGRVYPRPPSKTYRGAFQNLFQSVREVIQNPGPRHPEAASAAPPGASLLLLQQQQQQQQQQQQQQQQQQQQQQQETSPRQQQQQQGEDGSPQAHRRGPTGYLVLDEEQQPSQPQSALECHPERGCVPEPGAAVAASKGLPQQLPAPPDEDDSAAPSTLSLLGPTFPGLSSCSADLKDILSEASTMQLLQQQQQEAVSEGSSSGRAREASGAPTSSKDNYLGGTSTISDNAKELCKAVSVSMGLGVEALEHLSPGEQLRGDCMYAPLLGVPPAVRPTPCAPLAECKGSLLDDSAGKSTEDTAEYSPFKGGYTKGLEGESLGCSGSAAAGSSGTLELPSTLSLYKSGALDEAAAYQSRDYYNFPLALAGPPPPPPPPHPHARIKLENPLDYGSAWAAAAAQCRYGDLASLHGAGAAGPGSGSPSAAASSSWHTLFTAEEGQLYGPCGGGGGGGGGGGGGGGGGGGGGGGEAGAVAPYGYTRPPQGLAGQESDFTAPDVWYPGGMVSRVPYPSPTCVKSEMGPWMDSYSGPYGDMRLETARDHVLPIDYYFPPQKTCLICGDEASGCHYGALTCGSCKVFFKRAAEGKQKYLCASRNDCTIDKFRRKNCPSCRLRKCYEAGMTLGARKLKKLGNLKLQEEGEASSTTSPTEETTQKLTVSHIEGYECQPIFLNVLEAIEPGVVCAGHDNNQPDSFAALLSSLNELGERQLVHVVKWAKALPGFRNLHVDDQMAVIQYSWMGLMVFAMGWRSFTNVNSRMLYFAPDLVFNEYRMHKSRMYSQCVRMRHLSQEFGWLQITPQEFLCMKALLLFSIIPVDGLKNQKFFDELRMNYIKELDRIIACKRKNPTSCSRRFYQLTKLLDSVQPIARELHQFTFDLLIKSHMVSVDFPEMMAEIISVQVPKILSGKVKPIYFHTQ
Chain of human Factor Xa (P00742 235-488): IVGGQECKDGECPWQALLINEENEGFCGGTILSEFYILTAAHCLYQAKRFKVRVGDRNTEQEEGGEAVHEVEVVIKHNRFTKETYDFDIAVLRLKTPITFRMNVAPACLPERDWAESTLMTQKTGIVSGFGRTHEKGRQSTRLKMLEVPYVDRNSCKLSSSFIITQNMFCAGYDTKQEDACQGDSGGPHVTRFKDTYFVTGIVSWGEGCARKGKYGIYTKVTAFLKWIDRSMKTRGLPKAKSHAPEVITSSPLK
Chain of human Factor Xa (P00742 41-179 partner): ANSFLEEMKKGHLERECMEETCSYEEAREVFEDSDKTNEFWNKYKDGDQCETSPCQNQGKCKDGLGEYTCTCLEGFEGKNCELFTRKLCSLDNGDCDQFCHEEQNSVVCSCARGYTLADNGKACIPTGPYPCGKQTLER

Usually IC50 stands for the point on the concentration scale where inhibition reaches its midpoint. A low value points to greater potency. In the case of `CC1CCC(C)N1c1ccc(NC(=O)C(C)(C)NC(=O)c2ccc(Cl)s2)cc1` (stereo not shown) [WO2005/111013 Ex. 22], on human Factor Xa, the “inhibition of the human Factor Xa enzyme (in words)” value is “inhibits the human Factor Xa enzyme”; the midpoint of inhibition, the IC50, lay at 0.429 µM; the “Selectivity Assay C/Assay A” value is reported as 0.37. The “metabolic stability in human hepatocytes (in words)” value (“metabolic stability” for short) with human hepatocytes is “medium metabolic stability”.

`Cc1ccc(C(=O)NC(C)(C)C(=O)Nc2ccc(C#N)c(C(F)(F)F)c2)s1` [WO98/22432 example 86]: on human androgen receptor, the “antiandrogenic activity (in words)” value is given as “have antiandrogenic activity” and the “Selectivity Assay B/Assay A” value is on record as 4.9. Further, the “metabolic stability” value with human hepatocytes is recorded as “very low metabolic stability”.

For the compound `CC(C)(NC(=O)c1ccc(Br)s1)C(=O)Nc1ccc(Br)cc1` [Example 2, 2-[(5-bromothiophen-2-yl)formamido]-N-(4-bromophenyl)-2-methylpropanamide], the IC50 against human androgen receptor (challenge with 125 pM (EC80) 6a-Fl Testosterone, mean +− standard deviation) was above 10 µM. Besides, the “Selectivity Assay B/Assay A” value on human androgen receptor is given as above 52. Further, at human Factor Xa, the IC50 was above 10 µM and the “Selectivity Assay C/Assay A” value was above 52. Also, the “Hepatocyte stability Assay D” value in the series with human hepatocytes is reported as below 4.1 % QH.

As to `CC(C)(NC(=O)c1cccs1)C(=O)Nc1ccc(C#N)c(C(F)(F)F)c1` [WO98/22432 example 53], on human androgen receptor, the “antiandrogenic activity (in words)” value is reported as “have antiandrogenic activity” and the “Selectivity Assay B/Assay A” value is listed as 0.7. The “metabolic stability” value with human hepatocytes is recorded as “very low metabolic stability”.

For `CC(C)(NC(=O)c1ccc(Br)s1)C(=O)Nc1ccc(Cl)c(F)c1` [Example 1, 2-[(5-bromothiophen-2-yl)formamido]-N-(4-chloro-3-fluorophenyl)-2-methylpropanamide], the “Selectivity Assay B/Assay A” value at human androgen receptor is recorded as 43. For the same compound, at human Factor Xa, the IC50 is above 10 µM and the “Selectivity Assay C/Assay A” value is above 57. Further, in the series on human hepatocytes, the “Hepatocyte stability Assay D” value was below 4.1 % QH.

The values are drawn from US11691960B2, “2-[thiophen-2-yl)formamido]-N-(phenyl)-2-methylpropanamide derivatives and the use thereof as medicament” (Boehringer Ingelheim International GmbH, priority 2020, dated 2023).
